Literature values in publication PMC8942822 (The Journal of Biological Chemistry, 2022).

Assays:
[1] = target: T1, SpaASLH (SLH domain trimer of S-layer protein SpaA, wild-type) (Paenibacillus alvei, UniProt C1JZ07)
T1 sequence (C1JZ07 21-193): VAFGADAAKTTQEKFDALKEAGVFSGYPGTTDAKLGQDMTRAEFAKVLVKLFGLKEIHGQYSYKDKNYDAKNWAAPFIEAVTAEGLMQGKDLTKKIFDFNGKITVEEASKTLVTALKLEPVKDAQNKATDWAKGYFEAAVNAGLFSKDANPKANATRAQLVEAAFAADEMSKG

SpaASLH/G109A = target: T2, SpaASLH/G109A (Paenibacillus alvei, UniProt C1JZ07, G109A)
T2 sequence (C1JZ07 21-193 G109A): T1 sequence (C1JZ07 21-193)

SpaASLH/G46A/G109A = details: 20 °C, SpaASLH/G46A/G109A double mutant, previously published
[2] = ITC, 20 °C, SpaASLH wild-type, previously published
[3] = ITC, 20 °C, SpaASLH/G109A, previously published

SMILES	KA [1, 2]	Kd [1, 2] [nM]	Stoichiometry [1, 2]	ΔG [1, 2] [kcal/mol]	ΔH [1, 2] [kcal/mol]	−TΔS [1, 2] [kcal/mol]	Decrease of ITC binding affinity, G109A mutant (G1 binding) vs wild-type (SpaASLH/G109A)	KA (SpaASLH/G109A; [3])	Kd (SpaASLH/G109A; [3]) [nM]	Stoichiometry (SpaASLH/G109A; [3])	ΔG (SpaASLH/G109A; [3]) [kcal/mol]	ΔH (SpaASLH/G109A; [3]) [kcal/mol]	−TΔS (SpaASLH/G109A; [3]) [kcal/mol]	Binding by ITC (SpaASLH/G46A/G109A)	Binding by ITC ([1]; ITC experiments with internal-repeat SCWP disaccharide)
CO[C@@H]1O[C@@H]2CO[C@](C)(C(=O)O)O[C@H]2[C@H](O)[C@@H]1NC(C)=O [monosaccharide, 4,6-Pyr-β-D-ManNAcOMe]	3.48 × 10^7 ± 0.36 M^−1	29	0.91 ± 0.04	-10.06 ± 0.155	-21 ± 3.733	10.93 ± 3.826	tenfold	4.48 × 10^6 ± 0.62 M^−1	226	0.92 ± 0.04	-8.917 ± 0.0789	-12.1 ± 1.74	3.186 ± 1.67	No binding	
CO[C@@H]1O[C@@H]2CO[C@](C)(C(=O)O)O[C@H]2[C@H](O[C@@H]2O[C@H](CO)[C@@H](O)[C@H](O)[C@H]2NC(C)=O)[C@@H]1NC(C)=O [internal disaccharide, β-D-GlcNAc-(1→3)-4,6-Pyr-β-D-ManNAcOMe]															lack of corresponding measurable binding
